We go through three compounds from patent publication US20250019772A1, “Method and System of Augmenting Cancer Therapy” (UNIVERSITY OF MIAMI, priority 2023, published 2025).

In one data set the test system is CD11+ BMDC's. Kind of data set: Phagocytosis of irradiated MEFs treated with autophagy inhibitors by BMDC's (qPCR IFNβ1, Cxcl10). The class given is cell-based, mouse. To be noted: BafA1 50 nM; 3-MA 2.5 mM. For orientation: Quantitative PCR measures a nucleic acid by following its amplification.
A further data set deals with WT macrophages (WTØ). Kind of data set: Phagocytosis of irradiated cells by WT macrophages (WTØ), Cxcl10 qPCR, with CCL5, CCL5 antibody or CCR inhibitors. The class given is cell-based, mouse. The conditions noted are these: exogenously added recombinant CCL5 100 ng/mL 2 h, irradiated B16 cells 50 Gy. The procedure: (B) B16-WT or B16-SKO cells were irradiated using X-rays at 50 Gy for 3 days. 50 μL of the conditioned media from the cells was added to WTØ followed by adding the irradiated B16-WT and B16-SKO cells with the treated APC's for phagocytosis analysis. qPCR analysis was performed for Cxcl10 expression. (C) qPCR analysis of Cxcl10 in WTØ following the phagocytosis of irradiated MEF-WT cells in the presence of CCL5 antibody or IgG control (1 μg) at 100 ng/mL for 2 h prior to the phagocytosis. (D) MEF-WT cells were treated with a cocktail of 100 nM CCR inhibitors (Bx471, SB297006, AZD2098 and Maraviroc). The MEF-WT cells treated with the inhibitors (CCRi) were fed to WTØ for 6 h and Cxcl10 expression examined. (E) MEF WT, SKO or CCL5 KO were transfected with 3 μg/mL ISD for 6 h followed by measuring Ifnβ1, Cxcl10 or Ccl5 expression by qPCR analysis. (F) MEF WT, SKO or CCL5 KO were transfected with 3 μg/mL ISD for 6 h and then examined for STING activity by immunoblotting analysis. […] Immunofluorescence to detect STING translocation was monitored by confocal microscope, according to an embodiment of the present invention; […]
Macrophages were washed with 0.02% EDTA/PBS twice followed by incubation with 0.02% EDTA/PBS at 37C incubator for 10 mins. […] Percentage of phagocytosed cells were assessed by flow cytometry using a LSRII instrument (Becton Dickinson, USA).

In another data set the test system is DNase II. Kind of data set: Nuclease protection assay of Ccl5-DNA complex. The format is biochemical. The conditions noted are these: 1 unit DNase II, 37° C., 20 mins.
Another data set concerns ISD (dsDNA). Kind of data set: Binding of CCL5 to DNA (Picogreen, EMSA). To be noted: ISD 10 μg/mL. The text has this: SIEVES were isolated from irradiated (X-ray at 50 Gy for 3 days) WT, SKO, or CCL5 MEFs as well as B16-WT, B16-SKO or B16-CCL5KO cells by centrifugation. (A) Immunoblot analysis of centrifuged fractions using antibodies to STING, CD81, LC3, and Lamin A/C. (B) Size distribution evaluation of endosomal vesicles isolated from B16-WT. B16-SKO, and B16-CCL5 KO cells following irradiation with X-rays at 50 Gy. (C) Evaluation of number of endosomal vesicles in (B). (D) Immunoblotting analysis of endosomal/exosomal markers in endosomal vesicles in (B). (E) cGAMP ELISA analysis of WT DC. SKO DC, and CKO BMDC's treated with 30 μg of SIEVE's isolated from MEF WT, MEF SKO, MEF CKO or MEF CCL5 KO. (F) qPCR analysis of Cxcl10 in WT DC treated with SIEVE's from (E). […] (G) Tumor volumes were measured every other day for 2 weeks. […]
(B) B16-WT. […] DNA was purified with phenol-chloroform and CCL5 bound ISD was analyzed by qPCR analysis. (C) DNA in SIEVE's isolated from MEF-WT, SKO and CCL5 KO with or without X-ray at 50 Gy were measured by Nanodrop, Picogreen staining and visualized by agarose gel electrophoresis and dot blot analysis, according to an embodiment of the present invention; and
ISD90 was premixed with CCL5 and negative control molecules at different concentration in 100 μL and analyzed by a fluorimeter after staining with Picogreen. […]
(In general: Mobility shift assays separate free from complexed probe on a gel.)

Turning to `Cn1cnc(N)c2ncnc1-2` [3-MA, 3-Methyladenine], the “immunogenicity of irradiated MEF cells (ability to activate APC's)” value in the data set with CD11+ BMDC's is given as “suppressed the immunogenicity”. Take `CO/C1=C\C(C)=C\[C@@H](C)[C@@H](O)[C@@H](C)C/C(C)=C/C=C/[C@H](OC)[C@@H]([C@@H](C)[C@@H](O)[C@H](C)[C@@]2(O)C[C@@H](O)[C@H](C)[C@@H](C(C)C)O2)OC1=O` [BafA1, bafilomycin A1]: the “immunogenicity of irradiated MEF cells (ability to activate APC's)” value in the data set with CD11+ BMDC's is given as “suppressed the immunogenicity”. For the compound “Ccl5: recombinant CCL5 protein, exogenously added chemokine”, the “rescue of immunogenicity of Ccl5 KO or STING KO cells” value in the data set with WT macrophages (WTØ) is on record as “did not appear to significantly rescue the immunogenicity”. Besides, in the data set with DNase II, the “protection against DNA degradation by DNaseII” value is on record as “conferred protection against DNA degradation”. In the data set on ISD (dsDNA), the “association of Ccl5 with DNA” value is reported as “associated with”.
